Measured values reported in patent publication US20230381774A1, “MICROFLUDIC LAB-ON-CHIP DEVICE, MATRIX, SMALL MOLECULES AND THREE-DIMENSIONAL SPHEROIDS FOR CELL REPROGRAMMING” (The Regents of the University of California, priority 2022, published 2023).

Columns and labels:
Type in all cases: cell-based, mouse
[1] = system: neuronal genes; assay: qRT-PCR of neuronal gene expression; conditions: for neuronal gene expression at day 5: blebbistatin or 5 μM PF573228, vs non-treated transduced cells
Description: (§1) RNA was isolated from samples using Trizol® (Ambion) according to the manufacturer's instructions. For cDNA synthesis, 500 ng of RNA was reverse transcribed using Maxima First Strand cDNA Synthesis Kit (ThermoFisher Scientific). Template DNA was amplified using Maxima SYBR Green/Fluorescein qPCR Master Mix (ThermoFisher Scientific) on a CFX qPCR machine (Bio-Rad). qRT-PCR data were analyzed using CFX Manager 3.1 (Bio-Rad) and gene expression levels were normalized to 18S.

[2] = system: histone acetyltransferase (HAT); assay: HAT activity assay on nuclear extracts of treated fibroblasts; conditions: 10 μM blebbistatin or 5 μM PF573228, 2 hours, vs DMSO
Description: Nuclear protein extractions were isolated from 5×10^5 fibroblasts treated with vehicle control (DMSO), 10 μM blebbistatin or 5 μM PF573228 for 2 hours using a nuclear extraction kit (EpiGentek, OP-0002), in accordance with the manufacturer's instructions. HAT, HDAC, H3K4 HMT, H3K4 HDM and DNMT activity were measured using the HAT activity/inhibition assay (EpiGentek, P-4003-048), HDAC activity/inhibition assay (EpiGentek, P-4034-096), Histone methyltransferase (H3K4 specific) activity/inhibition assay (EpiGentek, P-3002-1), Histone Demethylase (H3K4 specific) activity/inhibition assay (EpiGentek, P-3074-48), and DNMT activity/inhibition assay (EpiGentek, P-3009-048), respectively. Per the manufacturer's instructions, 20 μg of nuclear extract was added into the assay wells and incubated at 37° C. for 90 minutes. After adding the color developer solution, the absorbance was measured using a plate reader (Infinite […], 30050303) at 450 nm for all the assays with the exception of the Histone Demethylase (H3K4 specific) activity/inhibition assay where we measured the fluorescence using a fluorescence microplate reader at 530 EX/590 EM nm.

[3] = system: iN cells; assay: Patch-clamp electrophysiology of iN cells; conditions: for functionality of derived iN cells: electrophysiological analysis
Description: For functional assessment of the iN cells, patch-clamp electrophysiology analysis was performed. All experiments were conducted at room temperature (22° C.-24° C.). All reagents were purchased from Sigma-Aldrich unless otherwise specified. Whole-cell recording was made from neurons using a patch clamp amplifier (MultiClamp 700B, Axon Instr.) under infrared differential interference contrast optics. Microelectrodes were made from borosilicate glass capillaries, with a resistance of 4-5 MW. For recording action potentials, cells were held at −70 mV in a […]. The intracellular solution for whole-cell recording of EPSPs and action potentials contained (in mM) 140 potassium gluconate, 5 KCl, 10 HEPES, 0.2 EGTA, 2 MgCl2, 4 MgATP, 0.3 Na2GTP and 10 Na2-phosphocreatine, pH 7.2 (adjusted with KOH).
For recording spontaneous EPSCs (sEPSCs), cells were pre-treated with the extracellular bath solution containing 50 μM picrotoxin (Tocris) to exclude an inhibitory synaptic activity and held at −70 mV in a voltage-clamp mode with the intracellular solution containing (in mM) 130 CsMeSO4, 7 CsCl, 10 HEPES, 1 EGTA, 4 MgATP, 0.3 Na2GTP, and 10 Na2-phosphocreatine, pH 7.3 (adjusted with CsOH). After recording basal sEPSC responses for 5 min, 10 μM CNQX (Tocris) and 100 μM D,L-APV (Tocris) were co-treated to test whether sEPSCs were mediated by activation of both AMPA- and NMDA-type of glutamate receptors. For measuring spontaneous IPSC (sIPSCs), cells were pre-treated with the bath solution containing 10 μM CNQX and 100 μM D,L-APV and held at −70 mV with the intracellular solution containing (in mM) 137 CsCl, 10 HEPES, 1 EGTA, 4 MgATP, 0.3 Na2GTP, and 10 Na2-phosphocreatine, pH 7.3 (adjusted with CsOH). 50 μM picrotoxin was then treated to test a dependency of sIPSCs on GABA receptors after acquiring basal sIPSC responses for 5 min. Series resistance (10-25 MΩ) and input resistance (˜200 MΩ using potassium-based internal solution; 1-2 G2 using Cs-based internal solution) were monitored throughout the whole-cell recording or compared before and after sEPSC/IPSC recordings.
Off-line analyses of action potential properties (number, amplitude, half-width) and the amplitude and frequency of sEPSC and sIPSC were performed by using a threshold event detection function of the Clampfit software (Molecular Devices). Visualization of analysis results and their statistical tests were performed by using GraphPad Prism® 6.0 software.

[4] = system: calponin and αSMA; assay: Mesenchymal marker expression (immunostaining, qRT-PCR, Western blot)
Description: (§2) For immunostaining, cells were fixed with 4% paraformaldehyde (Electron Microscopy Sciences), permeabilized with 0.5% Triton-X-100 (Sigma), and blocked with 5% donkey serum (Jackson Immunoresearch) in phosphate buffered saline (PBS). For actin-cytoskeleton staining, samples were incubated with fluorescein isothiocyanate-conjugated phalloidin (Invitrogen) for 1 hour. Primary antibodies were incubated for 1 hour at room temperature or overnight at 4° C., followed by 1-hour incubation with Alexa 488 and/or Alexa 546-labeled secondary antibodies (Molecular Probes). Nuclei were stained with 4,6-diamino-2-phenylindole (DAPI) (Invitrogen).
as §1
Fibroblasts were lysed and collected in Laemmli buffer ([…] Tris-HCl, 10% glycerol, 2% SDS, 5% 2-mercaptoethanol, 0.002% bromophenol blue) containing RIPA buffer (50 mM Tris-HCl, 150 mM NaCl, 1% Triton-X-100, 0.1% SDS, 10 mM NaF, 0.5% sodium deoxycholate) along with protease inhibitors (PMSF, Na3VO4 and Leupeptin) on ice. Protein lysates were centrifuged to pellet cell debris, and the supernatant was collected and used in further analysis. Protein samples were run using SDS-PAGE and transferred to polyvinylidene fluoride (PVDF) membranes. Membranes were blocked in 3% nonfat milk and incubated with primary antibodies overnight. Primary antibodies include pFAK, FAK, αSMA, Calponin, pERK, ERK, and GAPDH. Membranes were washed with Tris-Buffered Saline+0.05% Tween-20 and incubated with HRP-conjugated IgG secondary antibodies (Santa Cruz Biotechnologies) for one hour. Protein bands were visualized using Western Lightning™ Plus—Enhanced Chemiluminscence Substrate (Perkin Elmer Life & Analytical Sciences) and imaged on a ChemiDoc XRS system (Bio-Rad).

[5] = system: histone marks; assay: Immunofluorescence of histone marks in non-transduced fibroblasts; conditions: global; 10 μM blebbistatin or 5 μM PF573228, 2 hours, vs control
Description: as §2
Quantification of histone intensity per nuclei was performed using an ImageJ macro. DAPI-stained nuclei were segmented using gaussian blur, thresholding, watershed, and analyze particle functions to identify individual nuclei. This mask was applied to the corresponding stained fluorescence channel to quantify the average fluorescence intensity within each nucleus.

[6] = absence vs presence of blebbistatin

CS(=O)(=O)c1cccc(CNc2nc(Nc3ccc4c(c3)CCC(=O)N4)ncc2C(F)(F)F)c1 [PF573228]
neuronal gene expression at day 5 ([1]; BAM-transduced fibroblasts): greater | HAT activity [2]: differences | functionality of derived iN cells [3]: exhibited functional neuronal properties as assessed by electrophysiological analysis | calponin and αSMA expression in BAM-transduced fibroblasts ([4]; treated for 2 days): decreased | euchromatin marks (AcH3, H3K4me3, H3K4me1) [5]: global increases in AcH3, H3K3me3 and H3K4me1 marks | heterochromatin marks (H3K27me3, H3K9me3) [5]: a concurrent decrease in H3K9me3 and H3K27me3

Cc1ccc2c(c1)C(=O)C1(O)CCN(c3ccccc3)C1=N2 (centres unmarked) [blebbistatin]
endogenous Brn2 and Myt1l expression ([1]; Ascl1-transduced fibroblasts): upregulated the expression of endogenous Brn2 and Myt1l | expression of several neuronal genes including NeuroD1 ([1]; Ascl1-transduced fibroblasts): higher | Ascl1 expression at day 3 ([1]; BAM-transduced fibroblasts): upregulated | Brn2 and Myt1l expression at day 3 ([1]; BAM-transduced fibroblasts): did not show such a drastic increase in the expression level | neuronal gene expression at day 5 ([1]; BAM-transduced fibroblasts): significantly increased | HAT activity [2]: increased | frequency of spontaneous EPSCs [3, 6]: no significant difference | frequency of spontaneous IPSCs [3, 6]: no significant difference | IPSC amplitude ([3]; blebbistatin-derived iN cells): significantly lower | functionality of derived iN cells [3]: functional, exhibiting spontaneous changes in membrane potential in response to current injection | EPSC amplitude ([3]; iN cells derived with blebbistatin): significantly higher | action potential properties ([3]; iN cells generated in absence vs presence of blebbistatin): no apparent difference | calponin- and αSMA-positive cells ([4]; non-transduced fibroblasts): less calponin and α-smooth muscle actin (SMA)-positive cells | calponin and αSMA expression, gene and protein level ([4]; non-transduced fibroblasts, day 3): decreased at the gene and protein level by day 3 | Eln and DCN expression ([4]; qRT-PCR, non- and BAM-transduced fibroblasts): downregulated the expression of other mesenchymal and fibroblast-associated genes, Eln and DCN | euchromatin marks (AcH3, H3K4me3, H3K4me1) [5]: an increase in AcH3, H3K4me3, and H3K4me1 marks | heterochromatin marks (H3K27me3, H3K9me3) [5]: decreased
